Values quoted from earlier work as cited in patent publication US11167084B2, “Control device for controlling the administration of propofol to a patient” (Fresenius Vial SAS, priority 2016, dated 2021).
In brackets after ≈: the same amount, converted by molar mass.

Settings: Hill equation relating effect-site concentration to BIS; Emax=E0=100, y=2; FIG. 1 from T. A. Lim, Br J Anaesth 2006

CC(C)c1cccc(C(C)C)c1O [propofol]
EC50 (propofol effective concentration 50, effect-site): 4.14 µg/mL (≈ 23.2 µM)
